Assay [1] concerns the target T1, C-C chemokine receptor type 2 (Homo sapiens, UniProt P41597). Kind of assay: Displacement of radiolabeled MCP1 from CCR2 in human PBMC by millipore filter plate assay.
Target sequence in this assay (P41597 whole entry): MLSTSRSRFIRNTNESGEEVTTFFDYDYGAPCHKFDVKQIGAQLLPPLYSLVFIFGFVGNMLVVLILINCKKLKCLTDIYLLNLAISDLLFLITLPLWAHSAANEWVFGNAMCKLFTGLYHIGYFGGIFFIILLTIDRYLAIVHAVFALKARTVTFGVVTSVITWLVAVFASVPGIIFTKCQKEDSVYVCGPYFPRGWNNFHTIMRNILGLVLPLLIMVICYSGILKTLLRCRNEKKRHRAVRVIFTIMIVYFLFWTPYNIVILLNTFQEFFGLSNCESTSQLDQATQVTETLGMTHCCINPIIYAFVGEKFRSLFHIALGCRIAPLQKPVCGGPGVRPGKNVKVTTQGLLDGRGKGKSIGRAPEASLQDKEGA
Assay [2] deals with T1, C-C chemokine receptor type 2. Kind of assay: Antagonist activity at CCR2 in human PBMC assessed as MCP1-induced calcium flux by fluorescence-imaging plate assay. The format is functional.
Target sequence in this assay (P41597 whole entry): as above
Assay [3] concerns the target T2, C-C chemokine receptor type 3 (Homo sapiens) (UniProt P51677).
T2 sequence (whole entry): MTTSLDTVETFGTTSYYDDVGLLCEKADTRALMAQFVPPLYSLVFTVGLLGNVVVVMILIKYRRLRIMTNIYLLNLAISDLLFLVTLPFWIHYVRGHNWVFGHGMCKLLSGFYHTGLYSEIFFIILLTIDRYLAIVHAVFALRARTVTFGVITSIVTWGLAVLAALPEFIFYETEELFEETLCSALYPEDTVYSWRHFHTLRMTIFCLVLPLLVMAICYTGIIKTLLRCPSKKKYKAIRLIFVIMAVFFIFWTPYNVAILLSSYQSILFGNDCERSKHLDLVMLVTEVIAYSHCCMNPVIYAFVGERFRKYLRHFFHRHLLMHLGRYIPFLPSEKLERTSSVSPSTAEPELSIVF
In words: Inhibition of CCR3 at 10 uM.

The target of assay [4] is T1, C-C chemokine receptor type 2. Kind of assay: Binding affinity to wild type CCR2.
Target sequence in this assay (P41597 whole entry): as the sequence (P41597 whole entry) above
The target in assay [5] is C-C chemokine receptor type 2 (Homo sapiens, UniProt P41597, E291A). In words: Binding affinity to CCR2 E291A mutant.
Chain of C-C chemokine receptor type 2 (Homo sapiens, UniProt P41597, E291A) (P41597 whole entry E291A): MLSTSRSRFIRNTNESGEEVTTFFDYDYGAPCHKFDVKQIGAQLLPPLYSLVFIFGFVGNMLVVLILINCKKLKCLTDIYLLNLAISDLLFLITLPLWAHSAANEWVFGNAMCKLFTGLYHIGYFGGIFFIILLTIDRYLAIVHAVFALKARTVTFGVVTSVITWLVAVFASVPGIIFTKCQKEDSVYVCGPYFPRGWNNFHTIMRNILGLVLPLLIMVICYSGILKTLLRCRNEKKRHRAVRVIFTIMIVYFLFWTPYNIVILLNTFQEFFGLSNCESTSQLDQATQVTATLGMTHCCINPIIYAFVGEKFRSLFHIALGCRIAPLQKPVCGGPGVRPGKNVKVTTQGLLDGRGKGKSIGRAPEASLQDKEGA
Assay [6] addresses T1, C-C chemokine receptor type 2. Kind of assay: Displacement of radiolabeled MCP1 from CCR2 in human PBMC at 1 uM by millipore filter plate assay.
Target sequence in this assay (P41597 whole entry, looked up): as the sequence (P41597 whole entry) above

Our source for the IC50, inhibition and Activity values is ChEMBL document CHEMBL1141684, “Synthesis and evaluation of cis-3,4-disubstituted piperidines as potent CC chemokine receptor 2 (CCR2) antagonists” (Bioorg Med Chem Lett, 2008).

In the case of `CCCN1CCC(NCc2ccc(SC)cc2)C(NC(=O)CNC(=O)c2cc(C(F)(F)F)ccc2NC(=O)N2CCCC2)C1` (racemic), the IC50 – broadly, the concentration needed to halve the response being measured – in assay [1] is 8.7 nM; in assay [2], 21 nM. The inhibition (in general, the drop in the measured response relative to a control, in per cent) in assay [3] was found to be 38.2%.

On to `CSc1ccc(C(=O)NC2CCNCC2NC(=O)CNC(=O)c2cc(C(F)(F)F)ccc2N)cc1` (racemic), for which the IC50 amounted to 28 nM in assay [1], 75 nM in assay [2], 12 nM in assay [4] and 381 nM in assay [5]. This compound had an inhibition in assay [3] of 19.7%.

In the case of `CCSc1ccc(CNC2CCNCC2NC(=O)CNC(=O)c2cc(C(F)(F)F)ccc2N)cc1` (racemic), the IC50 in assay [1] was 123 nM.

`CSc1ccc(CNC2CCNCC2NC(=O)CNC(=O)c2cccc(C(F)(F)F)c2)cc1` (racemic): the IC50 amounted to 97 nM in assay [1] and 510 nM in assay [2]. The inhibition in assay [3] is 46%.

In the case of `CSc1ccc(CNC2CCN(C)CC2NC(=O)CNC(=O)c2cc(C(F)(F)F)ccc2N)cc1` (racemic), the IC50 in assay [1] worked out at 0.95 nM; in assay [2], 5 nM. The compound also yielded an inhibition in assay [3] of 56%.

As to `CSc1ccc(C(=O)NC2CCN(C)CC2NC(=O)CNC(=O)c2cc(C(F)(F)F)ccc2N)cc1` (racemic), the figures for the IC50 in assay [1] and in assay [2] were 1.8 nM and 2 nM, respectively. Moreover, in assay [3], the inhibition came to 43.1%.

Take `CCCN1CCC(NC(=O)c2ccc(SC)cc2)C(NC(=O)CNC(=O)c2cc(N)cc(C(F)(F)F)c2)C1` (racemic): the results for the IC50 in assay [1] and in assay [2] were 6.2 nM and 6 nM, respectively.

Consider `CCCN1CCC(NCc2ccc(SC)cc2)C(NC(=O)CNC(=O)c2cc(N)cc(C(F)(F)F)c2)C1` (racemic), for which the half-maximal inhibitory concentration (IC50) in assay [1] is 6.1 nM; in assay [2], 3 nM. In assay [3], this compound returned an inhibition of 49.3%.

Consider `CSc1ccc(CNC2CCCCC2NC(=O)CNC(=O)c2cc(C(F)(F)F)ccc2N)cc1` (racemic), for which the IC50 in assay [1] is 1180 nM.

For `CSc1ccc(CNC2CCNCC2NC(=O)CNC(=O)c2cc(C(F)(F)F)ccc2N)cc1` (racemic), the IC50 is 6.3 nM in assay [1], 7 nM in assay [2], 6.1 nM in assay [4] and 749 nM in assay [5]. This compound gave an inhibition in assay [3] of 47.3%.

Regarding `Nc1ccc(C(F)(F)F)cc1C(=O)NCC(=O)NC1CNCCC1NCc1ccc(Cl)cc1` (racemic), the results for the IC50 in assay [1] and in assay [2] were 21.5 nM and 19 nM, respectively. In assay [3], this compound registered an inhibition of 90%.

`CCCN1CCC(NCc2ccc(SC)cc2)C(NC(=O)CNC(=O)c2cc(C(F)(F)F)ccc2N)C1` (racemic): the values for the IC50 in assay [1] and in assay [2] were 3.4 nM and 2 nM, respectively. Besides, the inhibition in assay [3] was 47%.

Regarding `CCCN1CCC(NCc2ccc(SC)cc2)C(NC(=O)CNC(=O)c2cc(C(F)(F)F)ccc2NC(=O)NC)C1` (racemic), the IC50 in assay [1] came to 3.8 nM; in assay [2], 3 nM. In addition, the inhibition in assay [3] worked out at 5.5%.

`CSc1ccc(CNC2CCN(C(C)=O)CC2NC(=O)CNC(=O)c2cccc(C(F)(F)F)c2)cc1` (racemic) had an IC50 in assay [1] of 463 nM.

Consider `CCCCN1CCC(NCc2ccc(SC)cc2)C(NC(=O)CNC(=O)c2cc(C(F)(F)F)ccc2N)C1` (racemic), for which the IC50 in assay [1] was 7.9 nM; in assay [2] it was 13 nM. This compound displayed an inhibition in assay [3] of 75%.

Regarding `CCCCN1CCC(NC(=O)c2ccc(SC)cc2)C(NC(=O)CNC(=O)c2cc(C(F)(F)F)ccc2N)C1` (racemic), the IC50 in assay [1] was found to be 4.3 nM; in assay [2], 13 nM. Moreover, the inhibition in assay [3] is 77%.

In turn, `CSc1ccc(C(=O)NC2CCN(C(=O)OC(C)(C)C)CC2NC(=O)CNC(=O)c2cc(C(F)(F)F)ccc2NC(=O)OC(C)(C)C)cc1` (racemic) registered an Activity in assay [6] of 0%.

As to `CSc1ccc(CNC2CCN(C(=O)OC(C)(C)C)CC2NC(=O)CNC(=O)c2cccc(C(F)(F)F)c2)cc1` (racemic), the Activity in assay [6] came out at 0%.
